Values of other authors in US20220220558A1, “METHODS AND SYSTEMS FOR PROGNOSIS OF A PATIENT'S RESPONSE TO TREATMENT OF ANDROGENETIC SKIN DISORDERS” (priority 2008, published 2022).

Tested on: female androgenetic alopecia
Details: clinical trials

CC(C)(C)NC(=O)[C@H]1CC[C@H]2[C@@H]3CC[C@H]4NC(=O)C=C[C@]4(C)[C@H]3CC[C@]12C [finasteride]
affect on hair re-growth in women: statistically not significant
